These molecules were tested against T1, human BRD4 bromodomain II (Homo sapiens, UniProt O60885) (assay: Bromodomain binding assay (AlphaScreen), BRD4 BDII). Conditions: AlphaScreen assay, Table C2; read-out: BRD4 BDII IC50.
T1 construct: human BRD4 bromodomain II [based on Genbank NM_058243, residues 349-460]; host or cells: E. coli
Protocol: Bromodomain Binding Assay
The bromodomain binding assay utilizes AlphaScreen technology. Compounds compete with a biotinylated peptide ligand (from histone H4: aa 1-21, K5/K8/K12/K16Ac-biotin) for binding to a hexahistidine (His6)-tagged bromodomain. Peptide binding is detected by fluorescence signal after singlet oxygen energy transfer from peptide-bound AlphaScreen streptavidin-coated donor beads to His6-tagged bromodomain-bound nickel-chelate acceptor beads (PerkinElmer). Briefly, 8 μL 2.5× bromodomain (E. coli expressed, N-terminal His6-tagged human BRD4 bromodomain II [based on Genbank NM_058243, residues 349-460] or N-terminal His6-tagged human BRD4 bromodomain I [residues 44-170]) in reaction buffer (50 mM HEPES [pH 7.5], 100 mM NaCl, 0.05% CHAPS, 0.1% BSA, 1% DMSO) is added to wells of an assay plate (384-well low flange white, flat bottom, polystyrene microplate, Corning #3572; buffer only is added to some wells as a negative control). A compound concentration series (10 concentrations, 3-fold serial dilutions previously prepared in 100% DMSO, or 100% DMSO only negative control) is delivered to the assay plate with an Echo 550 acoustic liquid handler (Labcyte), followed by plate centrifugation and incubation for 30 minutes at room temperature. Then 4 μL 5× biotinylated peptide ligand is added, followed by plate centrifugation and gentle shaking for 30 minutes at room temperature to mix. After this incubation, 4 μL 5× donor beads are added, and the plate is centrifuged, followed by brief gentle shaking to mix. Finally, 4 μL 5× acceptor beads are added, and the plate is centrifuged, followed by gentle shaking for 60 minutes at room temperature in the dark. AlphaScreen signal (excitation/emission: 680 nm/520-620 nm) is detected with an EnSpire multimode plate reader (PerkinElmer). Percentage peptide binding is plotted as a function of concentration, and curve fitting is used to determine competitive compound binding ICsos.

Compound	IC50 [nM]
COc1cc(-c2cccc(-c3ccc(NC(C)=O)c(F)c3)c2O)ccc1NC(C)=O [Example 42, N,N′-(3-Fluoro-2′-hydroxy-3″-methoxy-[1,1′:3′,1″-terphenyl]-4,4″-diyl)diacetamide]	10 to 100
CC(=O)Nc1ccc(-c2cccc(-c3ccc(NC(C)=O)c(OC4CCC4)c3)c2O)cc1F [Example 45, N,N′-(3-Cyclobutoxy-3″-fluoro-2′-hydroxy-[1,1′:3′,1″-terphenyl]-4,4″-diyl)diacetamide]	> 100
CC(=O)Nc1ccc(-c2cccc(-c3ccc(NC(C)=O)c(Cl)c3)c2O)cc1F [Example 46, N,N′-(3-Chloro-3″-fluoro-2′-hydroxy-[1,1′:3′,1″-terphenyl]-4,4″-diyl)diacetamide]	> 100
CC(=O)Nc1ccc(-c2cccc(-c3ccc(NC(C)=O)c(C#N)c3)c2O)cc1F [Example 49, N,N′-(3-Cyano-3″-fluoro-2′-hydroxy-[1,1′:3′,1″-terphenyl]-4,4″-diyl)diacetamide]	10 to 100
CC(=O)Nc1ccc(-c2cccc(-c3ccc(NC(C)=O)c(F)c3)c2O)cc1C [Example 50, N,N′-(3-Fluoro-2′-hydroxy-3″-methyl-[1,1′:3′,1″-terphenyl]-4,4″-diyl)diacetamide]	10 to 100
CCOc1cc(-c2cccc(-c3ccc(NC(C)=O)c(F)c3)c2O)ccc1NC(C)=O [Example 52, N,N′-(3-Ethoxy-3″-fluoro-2′-hydroxy-[1,1′:3′,1″-terphenyl]-4,4″-diyl)diacetamide]	10 to 100
CC(=O)Nc1ccc(-c2cccc(-c3ccc(NC(C)=O)c(Oc4ccccc4)c3)c2O)cc1F [Example 53, N,N′-(3-Fluoro-2′-hydroxy-3″-phenoxy-[1,1′:3′,1″-terphenyl]-4,4″-diyl)diacetamide]	> 100
CC(=O)Nc1ccc(-c2cccc(-c3cccc(C)c3)c2O)cc1F [Example 55, N-(3-fluoro-2′-hydroxy-3″-methyl-[1,1′:3′,1″-terphenyl]-4-yl)acetamide]	> 100
COc1cccc(-c2cccc(-c3ccc(NC(C)=O)c(F)c3)c2O)c1 [Example 56, N-(3-fluoro-2′-hydroxy-3″-methoxy-[1,1′:3′,1″-terphenyl]-4-yl)acetamide]	> 100
CC(=O)Nc1ccc(-c2cccc(-c3cccnc3)c2O)cc1F [Example 63, N-(3-Fluoro-2′-hydroxy-3′-(pyridin-3-yl)-[1,1′-biphenyl]-4-yl)acetamide]	10 to 100
CCOC(=O)c1ccc(-c2cccc(-c3ccc(NC(C)=O)c(F)c3)c2O)cc1 [Example 69, Ethyl 4″-acetamido-3″-fluoro-2′-hydroxy-[1,1′:3′,1″-terphenyl]-4-carboxylate]	> 100
CCOC(=O)c1cccc(-c2cccc(-c3ccc(NC(C)=O)c(F)c3)c2O)c1 [Example 70, Ethyl 4″-acetamido-3″-fluoro-2′-hydroxy-[1,1′:3′,1″-terphenyl]-3-carboxylate]	> 100
CCOc1ccc(-c2cccc(-c3ccc(NC(C)=O)c(F)c3)c2O)cc1 [Example 71, N-(4″-ethoxy-3-fluoro-2′-hydroxy-[1,1′:3′,1″-terphenyl]-4-yl)acetamide]	> 100
CCOc1cccc(-c2cccc(-c3ccc(NC(C)=O)c(F)c3)c2O)c1 [Example 72, N-(3″-Ethoxy-3-fluoro-2′-hydroxy-[1,1′:3′,1″-terphenyl]-4-yl)acetamide]	> 100
CC(=O)Nc1ccc(-c2cccc(-c3ccc(NC(C)=O)c(OC4CCCC4)c3)c2O)cc1F [Example 73, N,N′-(3-(Cyclopentyloxy)-3″-fluoro-2′-hydroxy-[1,1′:3′,1″-terphenyl]-4,4″-diyl)diacetamide]	> 100
CC(=O)Nc1ccc(-c2cccc(-c3cccc(C(C)C)c3)c2O)cc1F [Example 75, N-(3-Fluoro-2′-hydroxy-3″-isopropyl-[1,1′:3′,1″-terphenyl]-4-yl)acetamide]	> 100

Results, then the molecule that gave them:

IC50 [nM]	Compound
10 to 100	O=C1NCCN1c1ccc(-c2cccc(-c3cc(N4CCNCC4)no3)c2O)cc1 [Example 41, 1-(2′-Hydroxy-3′-(3-(piperazin-1-yl)isoxazol-5-yl)-[1,1′-biphenyl]-4-yl)imidazolidin-2-one 2,2,2-trifluoroacetate]
10 to 100	O=C1CCCN1c1ccc(-c2cccc(-c3cc(N4CCNCC4)no3)c2O)cc1 [Example 43, 1-(2′-Hydroxy-3′-(3-(piperazin-1-yl)isoxazol-5-yl)-[1,1′-biphenyl]-4-yl)pyrrolidin-2-one 2,2,2-trifluoroacetate]
10 to 100	CC(=O)Nc1ccc(-c2cccc(-c3cc(N4CCNCC4)no3)c2O)cc1OC1CC1 [Example 44, N-(3-Cyclopropoxy-2′-hydroxy-3′-(3-(piperazin-1-yl)isoxazol-5-yl)-[1,1′-biphenyl]-4-yl)acetamide 2,2,2-trifluoroacetate]
> 100	CC(=O)Nc1ccc(-c2cccc(-c3ccc4c(c3)CCN4C(C)=O)c2O)cc1F [Example 47, N-(3′-(1-Acetylindolin-5-yl)-3-fluoro-2′-hydroxy-[1,1′-biphenyl]-4-yl)acetamide]
> 100	O=C(Nc1ccc(-c2cccc(-c3cc(N4CCNCC4)no3)c2O)cc1)C(F)F [Example 48, 2,2-Difluoro-N-(2′-hydroxy-3′-(3-(piperazin-1-yl)isoxazol-5-yl)-[1,1′-biphenyl]-4-yl)acetamide 2,2,2-trifluoroacetate]
> 100	CC(=O)Nc1ccc(-c2cccc(-c3cccc(F)c3)c2O)cc1F [Example 54, N-(3,3″-Difluoro-2′-hydroxy-[1,1′:3′,1″-terphenyl]-4-yl)acetamide]
> 100	CC(=O)Nc1ccc(-c2cccc(-c3cc(N4CCN(C(C)=O)CC4)no3)c2O)cc1 [Example 57, N-(3′-(3-(4-Acetylpiperazin-1-yl)isoxazol-5-yl)-2′-hydroxy-[1,1′-biphenyl]-4-yl)acetamide]
> 100	CC(=O)Nc1ccc(-c2cccc(-c3cc(N4CCN(S(=O)(=O)c5ccccc5)CC4)no3)c2O)cc1 [Example 58, N-(2′-Hydroxy-3′-(3-(4-(phenylsulfonyl)piperazin-1-yl)isoxazol-5-yl)-[1,1′-biphenyl]-4-yl)acetamide]
> 100	CC(=O)Nc1ccc(-c2cccc(-c3ccc(F)cc3)c2O)cc1F [Example 59, N-(3,4″-Difluoro-2′-hydroxy-[1,1′:3′,1″-terphenyl]-4-yl)acetamide]
> 100	CC(=O)Nc1ccc(-c2cccc(-c3ccc(C)cc3)c2O)cc1F [Example 60, N-(3-Fluoro-2′-hydroxy-4″-methyl-[1,1′:3′,1″-terphenyl]-4-yl)acetamide]
> 100	COc1ccc(-c2cccc(-c3ccc(NC(C)=O)c(F)c3)c2O)cc1 [Example 61, N-(3-Fluoro-2′-hydroxy-4″-methoxy-[1,1′:3′,1″-terphenyl]-4-yl)acetamide]
> 100	O=C1CCOc2cc(-c3cccc(-c4cc(N5CCNCC5)no4)c3O)ccc2N1 [Example 62, 8-(2-Hydroxy-3-(3-(piperazin-1-yl)isoxazol-5-yl)phenyl)-2,3-dihydrobenzo[b][1,4]oxazepin-4(5H)-one]
10 to 100	CC(=O)Nc1ccc(-c2cccc(-c3cc(N4CCNCC4)no3)c2O)cc1C#N [Example 64, N-(3-Cyano-2′-hydroxy-3′-(3-(piperazin-1-yl)isoxazol-5-yl)-[1,1′-biphenyl]-4-yl)acetamide 2,2,2-trifluoroacetate]
10 to 100	CN1CCN(c2ccc(-c3cccc(-c4cc(N5CCNCC5)no4)c3O)cc2)C1=O [Example 65, 1-(2′-Hydroxy-3′-(3-(piperazin-1-yl)isoxazol-5-yl)-[1,1′-biphenyl]-4-yl)-3-methylimidazolidin-2-one 2,2,2-trifluoroacetate]
> 100	CC(=O)Nc1ccc(-c2cccc(-c3ccncc3)c2O)cc1F [Example 67, N-(3-Fluoro-2′-hydroxy-3′-(pyridin-4-yl)-[1,1′-biphenyl]-4-yl)acetamide]
10 to 100	CC(=O)Nc1ccc(-c2cccc(-c3cc(N4CCNCC4)no3)c2O)cc1Oc1ccccc1 [Example 68, N-(2′-Hydroxy-3-phenoxy-3′-(3-(piperazin-1-yl)isoxazol-5-yl)-[1,1′-biphenyl]-4-yl)acetamide 2,2,2-trifluoroacetate]
> 100	CC(=O)Nc1ccc(-c2cccc(-c3ccc(C(C)C)cc3)c2O)cc1F [Example 74, N-(3-Fluoro-2′-hydroxy-4″-isopropyl-[1,1′:3′,1″-terphenyl]-4-yl)acetamide]
> 100	CC(=O)Nc1ccc(-c2cccc(-c3cc(N4CCNCC4)no3)c2O)cn1 [Example 76, N-(5-(2-Hydroxy-3-(3-(piperazin-1-yl)isoxazol-5-yl)phenyl)pyridin-2-yl)acetamide 2,2,2-trifluoroacetate]

Same assay, conditions: BRD4 BDII IC50, AlphaScreen assay, Table C2

Compound	IC50 [nM]
O=C(CF)Nc1ccc(-c2cccc(-c3cc(N4CCNCC4)no3)c2O)cc1 [Example 66, 2-Fluoro-N-(2′-hydroxy-3′-(3-(piperazin-1-yl)isoxazol-5-yl)-[1,1′-biphenyl]-4-yl)acetamide 2,2,2-trifluoroacetate]	> 100
